Experimental data: patent publication US20140350081A1, “INSECT G-COUPLED RECEPTORS USEFUL AS TARGETS FOR INSECTICIDES AND COMPOUNDS AND REAGENTS IDENTIFIED USING THE SAME” (priority 2011, published 2014)
pIC50: −log10 of the molar value. Where a name gives a salt, the structure may show the parent alone. Read-outs that look alike come from different tables or passages of the source.

Assays:
AaDOP2 = AaDOP2 (Aedes aegypti, UniProt H6D5H2); assay: HTRF cAMP accumulation concentration response assay (Cisbio Dynamic 2); format: cell-based
Isdop2 = Isdop2 (Ixodes scapularis, UniProt A0ACM8DGL0); assay: cell-based; conditions: for inhibition at 10 µM: read-out: % Inhibition (of response to dopamine), Isdop2 screen
Ae. aegypti L3 larvae = assay: whole plant or invertebrate; conditions: Aedes aegypti
[1] = in vitro Concentration Response Curve assay, n = 2, relative to control antagonist Amitriptyline, read-out: Avg IC50
[2] = 10 μM compound, footnote 3 mM dopamine
[3] = 24 h, read-out: Toxicity to Aedes aegypti larvae (mortality) 24 hours, 400 μM, L3 larvae, three independent experiments
[4] = 48 h, read-out: Toxicity to Aedes aegypti larvae (mortality) 48 hours, 400 μM, L3 larvae, three independent experiments
[5] = 72 h, read-out: Toxicity to Aedes aegypti larvae (mortality) 72 hours, 400 μM, L3 larvae, three independent experiments
[6] = 0.5 h, read-out: percent mortality 0.5 hr, 400 uM, L3 larvae, value for this scoring time
[7] = 1 h, read-out: percent mortality 1 hr, 400 uM, L3 larvae, per scoring time
[8] = 2 h, read-out: percent mortality 2 hr, 400 uM, L3 larvae, per scoring time
[9] = 3 h, read-out: percent mortality 3 hr, 400 uM, L3 larvae, per scoring time
[10] = 4 h, read-out: percent mortality 4 hr, 400 uM, L3 larvae, per scoring time
[11] = 24 h, read-out: percent mortality 24 hr, 400 uM, L3 larvae, per scoring time
[12] = 48 h, read-out: percent mortality 48 hr, 400 uM, L3 larvae, per scoring time
[13] = 72 h, read-out: Cumulative % Mortality (72 hrs), 400 uM, L3 larvae
[14] = 72 h, read-out: percent mortality 72 hr, 400 uM, L3 larvae, per scoring time
[15] = […], read-out: percent mortality […], 400 uM, L3 larvae, per scoring time

AaDOP2, sequence (H6D5H2 entry or part of it): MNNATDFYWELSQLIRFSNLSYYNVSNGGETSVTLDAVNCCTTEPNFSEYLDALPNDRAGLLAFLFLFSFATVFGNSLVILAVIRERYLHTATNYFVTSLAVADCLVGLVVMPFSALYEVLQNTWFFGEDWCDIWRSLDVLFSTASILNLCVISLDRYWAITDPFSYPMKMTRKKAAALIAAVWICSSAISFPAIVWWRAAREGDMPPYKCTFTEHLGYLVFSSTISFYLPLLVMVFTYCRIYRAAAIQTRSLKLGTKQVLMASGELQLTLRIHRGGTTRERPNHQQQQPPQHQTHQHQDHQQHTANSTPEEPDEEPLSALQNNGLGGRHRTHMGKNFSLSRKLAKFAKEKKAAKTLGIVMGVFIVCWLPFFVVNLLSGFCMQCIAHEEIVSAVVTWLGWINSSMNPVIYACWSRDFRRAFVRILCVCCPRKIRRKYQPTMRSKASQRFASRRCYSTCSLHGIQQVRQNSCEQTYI
Isdop2, sequence (A0ACM8DGL0 entry or part of it): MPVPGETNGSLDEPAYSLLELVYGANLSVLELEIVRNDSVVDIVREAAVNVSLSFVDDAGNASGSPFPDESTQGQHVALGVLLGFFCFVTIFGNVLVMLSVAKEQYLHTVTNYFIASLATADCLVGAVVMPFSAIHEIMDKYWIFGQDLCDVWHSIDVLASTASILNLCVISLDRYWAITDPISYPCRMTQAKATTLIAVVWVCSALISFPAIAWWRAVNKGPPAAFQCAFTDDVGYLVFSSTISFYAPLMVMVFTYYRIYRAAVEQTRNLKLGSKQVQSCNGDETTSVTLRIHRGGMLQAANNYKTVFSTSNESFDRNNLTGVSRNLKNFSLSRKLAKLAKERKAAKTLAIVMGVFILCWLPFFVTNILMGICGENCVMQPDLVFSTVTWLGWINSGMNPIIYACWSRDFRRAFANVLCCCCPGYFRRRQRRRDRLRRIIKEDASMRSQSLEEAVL

## COc1cc(OC)cc(C(=O)Nc2ccc(Nc3nc(C)cc(Nc4ccccc4)n3)cc2)c1 [Compound G869-0121, 3,5-dimethoxy-N-(4-((4-methyl-6-(phenylamino)pyrimidin-2-yl)amino)phenyl)benzamide]
AaDOP2; [1]
  pIC50: 5.65

## CN1CCN(CCCN2c3ccccc3Sc3ccc(C(F)(F)F)cc32)CC1 [Trifluoperazine, 10-[3-(4-methylpiperazin-1-yl)propyl]-2-(trifluoromethyl)-10H-phenothiazine]
Isdop2
  inhibition at 10 µM: 76%

## COc1ccccc1N1CCN(CCCCN2C(=O)c3ccccc3C2=O)CC1 [NAN-190 hydrobromide]
Isdop2
  inhibition at 10 µM: 69%

## CN(C)CCC=C1c2ccccc2C=Cc2ccccc21 [Cyclobenzaprine]
Isdop2
  inhibition at 10 µM: 95%

## Cc1cc(Nc2ccccc2)nc(Nc2ccc(NC(=O)C3CCCCC3)cc2)n1 [Compound G869-0105, N-(4-((4-methyl-6-(phenylamino)pyrimidin-2-yl)amino)phenyl)cyclohexanecarboxamide]
AaDOP2; [1]
  pIC50: 4.94

## CCCN1C[C@H](CSC)C[C@@H]2c3cccc4[nH]cc(c34)C[C@H]21 [Pergolide Mesylate, 8β-[(Methylthio)methyl]-6-propylergoline methanesulfonate salt]
AaDOP2; [1]
  pIC50: 6.15

## COc1ccccc1N1CCN(CCCCNC(=O)c2ccc3ccccc3c2)CC1 [BP 897]
Isdop2
  inhibition at 10 µM: 71%

## Cc1cc(N2CCCC2)nc(Nc2ccc(NC(=O)c3ccccc3Br)cc2)n1 [Compound G869-0472, 2-bromo-N-(4-((4-methyl-6-(pyrrolidin-1-yl)pyrimidin-2-yl)amino)phenyl)benzamide]
AaDOP2; [1]
  pIC50: 4.71

## CCN(CC)C(=O)N[C@H]1C[C@@H]2c3cccc4[nH]cc(c34)C[C@H]2N(C)C1 [R(+)-Terguride]
Isdop2
  % Inhibition (of response to dopamine), Isdop2 screen: 68%

## CCC(CC)c1nc(Nc2ccc(C)c(Cl)c2)c2ccccc2n1 [ST029892, (3-chloro-4-methylphenyl)[2-(ethylpropyl)quinazolin-4-yl]amine]
AaDOP2; [1]
  pIC50: 5.35

## CN(C)CCOc1ccc(/C(=C(/CCCl)c2ccccc2)c2ccccc2)cc1 [Toremifene citrate salt, (Z)-2-(4-(4-Chloro-1,2-diphenyl-1-butenyl)phenoxy)-N,N-dimethylethanamine]
AaDOP2
  pIC50: 4.35

## CN1CCCC(n2nc(Cc3ccc(Cl)cc3)c3ccccc3c2=O)CC1 (stereo not drawn) [Azelastine HCl, 4-[(4-chlorophenyl)methyl]-2-(1-methylazepan-4-yl)phthalazin-1-one hydrochloride]
AaDOP2
  pIC50: 4.32

## Cc1ccc(O)c(N=Nc2ccccc2)n1 [SIB 1757]
Isdop2; [2]
  % Inhibition (of response to dopamine), Isdop2 screen: 100%

## C[C@@H]1O[C@@H](O[C@H]2C[C@@H](O)[C@]3(CO)[C@H]4[C@H](O)C[C@]5(C)[C@@H]([C@@H]6COC(=O)C6)CC[C@]5(O)[C@@H]4CC[C@]3(O)C2)[C@H](O)[C@H](O)[C@H]1O [Dihydroouabain]
Isdop2; [2]
  % Inhibition (of response to dopamine), Isdop2 screen: 76%

## O=C1Nc2ccccc2/C1=C1/Nc2ccccc2/C1=N\O [Indirubin-3′-oxime]
Isdop2
  % Inhibition (of response to dopamine), Isdop2 screen: 93%

## (±)-Butaclamol hydrochloride
Isdop2
  % Inhibition (of response to dopamine), Isdop2 screen: 86%

## OCCN1CCN(CCCN2c3ccccc3Sc3ccc(C(F)(F)F)cc32)CC1 [Fluphenazine, 2-[4-[3-[2-(trifluoromethyl)-10H-phenothiazin-10-yl]propyl]piperazin-1-yl]ethanol]
Isdop2
  inhibition at 10 µM: 79%

## COC1=C(OC)C(=O)c2ccccc2C1=O [2,3-Dimethoxy-1,4-naphthoquinone]
Isdop2
  inhibition at 10 µM: 68%

## Cc1cc(N)c2ccccc2[n+]1CCCCCCCCCC[n+]1c(C)cc(N)c2ccccc21 [Dequalinium dichloride]
Isdop2
  inhibition at 10 µM: 75%

## OC[C@H]1O[C@@H](n2cnc3ccccc32)[C@H](O)[C@@H]1O [D-ribofuranosylbenzimidazole]
Isdop2; [2]
  % Inhibition (of response to dopamine), Isdop2 screen: 82%

## O=c1c(-c2ccc(O)cc2)coc2cc(O)ccc12 [Daidzein]
Isdop2
  inhibition at 10 µM: 77%

## CN1CCc2cccc(Cl)c2CC1 [SKF86466]
Isdop2; [2]
  % Inhibition (of response to dopamine), Isdop2 screen: 86%

## CC(C)(C)c1cc(/C=C(\C#N)C(N)=S)cc(C(C)(C)C)c1O [Tyrphostin AG 879]
Isdop2
  % Inhibition (of response to dopamine), Isdop2 screen: 75%

## O=C1Nc2ccc(I)cc2/C1=C/c1cc(Br)c(O)c(Br)c1 [GW5074]
Isdop2
  % Inhibition (of response to dopamine), Isdop2 screen: 81%

## CC[C@H](CO)Nc1nc(NCc2ccccc2)c2ncn(C(C)C)c2n1 [Roscovitine]
Isdop2
  inhibition at 10 µM: 91%

## NC(=Nc1ccccc1)NC(=O)c1nc(Cl)c(N)nc1N [Phenamil methanesulfonate]
Isdop2
  inhibition at 10 µM: 72%

## CN1CCC(=C2c3ccccc3C=Cc3ccccc32)CC1 [Cyproheptadine]
Isdop2
  inhibition at 10 µM: 93%

## COc1cccc(-c2cc(=O)c3ccccc3o2)c1N [PD 98,059]
Isdop2; [2]
  % Inhibition (of response to dopamine), Isdop2 screen: 87%

## CC(C)(C)c1cc(C=C(C#N)C#N)cc(C(C)(C)C)c1O [Tyrphostin A9]
Isdop2; [2]
  % Inhibition (of response to dopamine), Isdop2 screen: 87%

## C[C@@H]1O[C@@H](O[C@H]2C[C@@H](O)[C@]3(CO)[C@H]4[C@H](O)C[C@]5(C)[C@@H](C6=CC(=O)OC6)CC[C@]5(O)[C@@H]4CC[C@]3(O)C2)[C@H](O)[C@H](O)[C@H]1O [Ouabain]
Isdop2
  inhibition at 10 µM: 86%

## CN1CCN2c3ccccc3Cc3ccccc3C2C1 (racemic) [Mianserin, ((±)-2-methyl-1,2,3,4,10,14b-hexahydrodibenzo[c,f]pyrazino [1,2-a]azepine)]
Isdop2
  inhibition at 10 µM: 87%

## O=c1c(-c2ccc(O)cc2)coc2cc(O)cc(O)c12 [Genistein]
Isdop2
  inhibition at 10 µM: 71%

## CNCCC(Oc1ccc(C(F)(F)F)cc1)c1ccccc1 (stereo not drawn) [Fluoxetine]
Ae. aegypti L3 larvae; [3]
  mortality at 400 µM: 43%
Ae. aegypti L3 larvae; [4]
  mortality at 400 µM: 53%
Ae. aegypti L3 larvae; [5]
  mortality at 400 µM: 53%

## CN1CCN(CC(=O)N2c3ccccc3C(=O)Nc3cccnc32)CC1 [Pirenzepine]
Ae. aegypti L3 larvae; [6]
  mortality at 400 µM: 0%
Ae. aegypti L3 larvae; [7]
  mortality at 400 µM: 0%
Ae. aegypti L3 larvae; [8]
  mortality at 400 µM: 0%
Ae. aegypti L3 larvae; [9]
  mortality at 400 µM: 0%
Ae. aegypti L3 larvae; [10]
  mortality at 400 µM: 0%
Ae. aegypti L3 larvae; [3]
  mortality at 400 µM: 0%
Ae. aegypti L3 larvae; [11]
  mortality at 400 µM: 0%
Ae. aegypti L3 larvae; [4]
  mortality at 400 µM: 0%
Ae. aegypti L3 larvae; [12]
  mortality at 400 µM: 0%
Ae. aegypti L3 larvae; [13]
  mortality at 400 µM: 0%
Ae. aegypti L3 larvae; [5]
  mortality at 400 µM: 0%
Ae. aegypti L3 larvae; [14]
  mortality at 400 µM: 0%
Ae. aegypti L3 larvae; [15]
  mortality at 400 µM: 0%

## O=C(c1ccc(F)cc1)C1CCN(CCn2c(=O)[nH]c3ccccc3c2=O)CC1 [Ketanserin]
Ae. aegypti L3 larvae; [6]
  mortality at 400 µM: 0%
Ae. aegypti L3 larvae; [7]
  mortality at 400 µM: 0%
Ae. aegypti L3 larvae; [8]
  mortality at 400 µM: 0%
Ae. aegypti L3 larvae; [9]
  mortality at 400 µM: 0%
Ae. aegypti L3 larvae; [10]
  mortality at 400 µM: 0%
Ae. aegypti L3 larvae; [3]
  mortality at 400 µM: 0%
Ae. aegypti L3 larvae; [11]
  mortality at 400 µM: 0%
Ae. aegypti L3 larvae; [4]
  mortality at 400 µM: 0%
Ae. aegypti L3 larvae; [12]
  mortality at 400 µM: 0%
Ae. aegypti L3 larvae; [13]
  mortality at 400 µM: 0%
Ae. aegypti L3 larvae; [5]
  mortality at 400 µM: 0%
Ae. aegypti L3 larvae; [14]
  mortality at 400 µM: 0%
Ae. aegypti L3 larvae; [15]
  mortality at 400 µM: 0%

## CN1[C@@H]2CC[C@H]1C[C@@H](OC(c1ccccc1)c1ccccc1N)C2 (stereo partly drawn) [Aminobenztropine]
Isdop2
  inhibition at 10 µM: 71%

## O=C(N[C@@H](Cc1ccccc1)C(=O)CCl)OCc1ccccc1 [Z-L-Phe chloromethyl ketone]
Isdop2
  % Inhibition (of response to dopamine), Isdop2 screen: 90%

## Clc1ccc2c(c1)C(N1CCNCC1)=Nc1ccccc1O2 [Amoxapine, 2-Chloro-11-(piperazin-1-yl)dibenzo[b,f][1,4]oxazepine]
Isdop2
  inhibition at 10 µM: 92%

## C[n+]1cc2c3c(ccc2c2ccc4cc5c(cc4c21)OCO5)OCO3 [Sanguinarine chloride]
Isdop2
  inhibition at 10 µM: 100%

## Br.CN1CCc2cc(O)c(O)cc2C(c2ccccc2)C1 (stereo not drawn) [SKF 75670 hydrobromide]
Isdop2
  % Inhibition (of response to dopamine), Isdop2 screen: 68%

## CC(=O)c1c(O)c(C)c(O)c(Cc2c(O)c3c(c(C(=O)/C=C/c4ccccc4)c2O)OC(C)(C)C=C3)c1O [Rottlerin]
Isdop2
  inhibition at 10 µM: 97%

## CN1CCN(CCCN2c3ccccc3Sc3ccc(Cl)cc32)CC1 [Prochlorperazine, 2-chloro-10-[3-(4-methyl-1-piperazinyl)propyl]-10H-phenothiazine]
Isdop2
  inhibition at 10 µM: 86%

## O=c1cc(-c2ccc(O)cc2)oc2cc(O)cc(O)c12 [Apigenin]
Isdop2
  inhibition at 10 µM: 98%

## c1ccc2c(c1)[I+]c1ccccc1-2 [Diphenyleneiodonium chloride]
Isdop2
  inhibition at 10 µM: 78%

## C=C(C)[C@H]1Cc2c(ccc3c2O[C@@H]2COc4cc(OC)c(OC)cc4[C@@H]2C3=O)O1 [Rotenone]
Isdop2
  inhibition at 10 µM: 77%

## CC1CNCCN1S(=O)(=O)c1cccc2cnccc12.Cl.Cl (stereo not drawn) [H-7 dihydrochloride]
Isdop2
  % Inhibition (of response to dopamine), Isdop2 screen: 73%

## Cc1nc2n(c(=O)c1CCN1CCC(c3noc4cc(F)ccc34)CC1)CCCC2 [Risperidone, 4-[2-[4-(6-fluorobenzo[d]isoxazol-3-yl)-1-piperidyl]ethyl]-3-methyl-2,6-diazabicyclo[4.4.0]deca-1,3-dien-5-one]
Isdop2
  inhibition at 10 µM: 100%

## CSc1ccc2c(c1)N(CCC1CCCCN1C)c1ccccc1S2 (racemic) [Thioridazine, 10-{2-[(RS)-1-Methylpiperidin-2-yl]ethyl}-2-methylsulfanylphenothiazine]
Isdop2
  inhibition at 10 µM: 85%

## CCn1cnc2c(Nc3cccc(Cl)c3)nc(N[C@@H]3CCCC[C@@H]3N)nc21.Cl [CGP-74514A hydrochloride]
Isdop2
  % Inhibition (of response to dopamine), Isdop2 screen: 98%
